Experiments:
human recombinant H-PGDS [1] = target: T1, human recombinant H-PGDS (Homo sapiens, UniProt O60760); test: Slightly modified fluorescence intensity h-PGDS TBA enzyme assay (1:40,000 enzyme, 40 second reaction, 1/2 log dilutions, top concentration typically 10 μM); assay type: biochemical; settings: slightly modified assay: 1:40,000 human recombinant H-PGDS
Description: Fluoresecence Intensity h-PGDSTBA Enzyme Assay
Prostaglandin D Synthase (PGDS) converts the substrate prostaglandin H2 (PGH2) to prostaglandin D2. The depletion of PGH2 was measured via an Fe(II) reduction of the remaining PGH2 to malondialdehyde (MDA) and 12-HHT. The enzyme assay is based on the quantitative formation of a fluorescent complex from the non-fluorescent compounds MDA and 2-thiobarbituric acid (TBA), substantially as described in U.S. patent application publication US-2004/152148 by Lombardt.
Examples 6-8, 11a-16, 23, 26-47, 49-103, 105-113, 115-118 and 126-128 were tested in a slightly modified assay: The enzyme assay (30 μls during biological process) contained 100 mM Trizma pH 8.0, 100 μM MgCl2, 0.1 mg/ml IgG Rabbit serum, 5.0 μM PGH2 (Cayman; ethanol solution, #17020), 2.5 mM L-Glutathione (Sigma; reduced form #G4251), 1:40,000 human recombinant H-PGDS (from 1 mg/ml), 0.5% DMSO and inhibitor (varying concentration). 3 μls of diluted inhibitor (dissolved in DMSO) was plated into a 384-well assay plate followed by a 24 μl addition of an enzyme solution containing h-PGDS, Trizma, MgCl2, IgG and L-Glutathione. After pre-incubation of inhibitor and enzyme solution for 10 minutes at room temperature, the reaction was initiated with a 3 μl addition of substrate solution in 10 mM HCl. The reaction was terminated after 40 second by the addition of 3 μl stop buffer containing FeCl2 and citric acid. After addition of 45 μls of TBA plates were heated for one hour in a 70° C. oven. Plates were cooled at room temperature overnight and read on a plate reader the next day with excitation @ 530 nm and emission @ 560 nm. IC50' s of inhibitors were calculated with a 4-parameter fit using 11 inhibitor concentrations in duplicate with ½ log serial dilutions. Controls on each plate included no inhibitor (zero % effect) and an inhibitor 500-fold in excess of its' IC50 (100% effect). The highest inhibitor concentration tested was typically 10 μM.

human recombinant H-PGDS [2] = target: T1, human recombinant H-PGDS; test: Fluorescence intensity h-PGDS TBA enzyme assay (PGH2 depletion, MDA/TBA fluorescence); assay type: biochemical; settings: 1:175,000 human recombinant H-PGDS, 42 second reaction, 3-fold serial dilutions, highest concentration typically 1 μM
Method in brief: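 Recombinant human H-PGDS preincubated with inhibitor 10 min at room temperature in pH 8.0 Tris, MgCl2, IgG, 2.5 mM glutathione, 0.5% DMSO. Reaction with 5.0 μM PGH2 stopped at 42 s with FeCl2/citric acid; MDA–TBA fluorescence (ex 530/em 565 nm) read after 70° C. IC50 by 4-parameter fit, 11 concentrations.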

T1 sequence (O60760 whole entry): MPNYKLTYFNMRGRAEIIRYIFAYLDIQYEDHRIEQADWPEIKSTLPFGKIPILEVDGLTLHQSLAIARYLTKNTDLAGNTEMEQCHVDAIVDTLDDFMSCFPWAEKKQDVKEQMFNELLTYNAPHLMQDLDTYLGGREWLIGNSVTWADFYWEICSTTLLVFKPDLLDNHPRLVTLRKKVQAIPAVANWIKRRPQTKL

| IC50 (human recombinant H-PGDS [1]) | IC50 (human recombinant H-PGDS [2]) | SMILES |
| --- | --- | --- |
| 64.6 nM |  | N[C@H]1CCCC[C@@H]1NC(=O)[C@@H]1CCC[C@H](NC(=O)c2ccc(-c3cccc(F)c3)nc2)C1 (mixture of isomers) [Example 64B, N-[cis-3-{[(1S,2S)-2-aminocyclohexyl]carbamoyl}cyclohexyl]-6-(3-fluorophenyl)nicotinamide] |
| 47 nM |  | N[C@@H]1CCCC[C@H]1NC(=O)[C@@H]1CCC[C@H](NC(=O)c2ccc(-c3cccc(F)c3)nc2)C1 (mixture of isomers) [Example 64C, N-[cis-3-{[(1R,2R)-2-aminocyclohexyl]carbamoyl}cyclohexyl]-6-(3-fluorophenyl)nicotinamide] |
| 17.2 nM |  | O=C(N[C@H]1CCC[C@@H](C(=O)N[C@@H]2CCNC2=O)C1)c1ccc(-c2cccc(F)c2)nc1 (mixture of isomers) [Example 64G, 6-(3-fluorophenyl)-N-[cis-3-{[(3R)-2-oxopyrrolidin-3-yl]carbamoyl}cyclohexyl]nicotinamide] |
| 13 nM |  | O=C(N[C@H]1CCC[C@@H](C(=O)N[C@H]2CCNC2=O)C1)c1ccc(-c2cccc(F)c2)nc1 (mixture of isomers) [Example 64H, 6-(3-fluorophenyl)-N-[cis-3-{[(3S)-2-oxopyrrolidin-3-yl]carbamoyl}cyclohexyl]nicotinamide] |
| 10.9 nM |  | O=C(N[C@H]1CCC[C@@H](C(=O)N[C@@H]2CCOC2)C1)c1ccc(-c2cccc(F)c2)nc1 (mixture of isomers) [Example 64K, 6-(3-fluorophenyl)-N-{cis-3-[(3R)-tetrahydrofuran-3-ylcarbamoyl]cyclohexyl}nicotinamide] |
| 255 nM |  | N[C@H]1CCCC[C@H]1NC(=O)[C@@H]1CCC[C@H](NC(=O)c2ccc(-c3cccc(F)c3)nc2)C1 (mixture of isomers) [Example 64L, N-[(1S,3R)-3-{[cis-2-aminocyclohexyl]carbamoyl}cyclohexyl]-6-(3-fluorophenyl)nicotinamide] |
| 7.18 nM |  | CCN1CCN(C(=O)[C@H]2CCC[C@@H](NC(=O)c3ccc(-c4cccc(F)c4)nc3)C2)CC1 (racemic) [Example 41, N-{cis-3-[(4-Ethylpiperazin-1-yl)carbonyl]cyclohexyl}-6-(3-fluorophenyl)nicotinamide] |
| 17.4 nM |  | O=C(N[C@@H]1CCCC[C@@H]1O)c1ccc(-c2cccc(F)c2)nc1 (relative stereo) [Example 23] |
| 18.2 nM |  | O=C(N[C@@H]1CCC[C@H](O)C1)c1ccc(-c2cccc(F)c2)nc1 (relative stereo) [Example 26, 6-(3-Fluorophenyl)-N-[cis-3-hydroxycyclohexyl]nicotinamide] |
| 14.2 nM |  | O=C(N[C@@H]1CCC[C@H](C(=O)O)C1)c1ccc(-c2cccc(F)c2)nc1 (relative stereo) [Example 27, cis-3-({[6-(3-Fluorophenyl)pyridin-3-yl]carbonyl}amino)cyclohexanecarboxylic acid] |
|  | 37.3 nM | CN1CCN(C(=O)[C@@]2(C)CCC[C@@H](NC(=O)c3ccc(-c4cccc(F)c4)nc3)C2)CC1 [Example 230, 6-(3-Fluorophenyl)-N-{(1R,3S)-3-methyl-3-[(4-methylpiperazin-1-yl)carbonyl]cyclohexyl}nicotinamide] |
|  | 31.2 nM | COC1(C(C)O)CCC(NC(=O)c2ccc(-c3cccc(F)c3)nc2)CC1 (centres unmarked) [Example 232, 6-(3-Fluorophenyl)-N-[4-(1-hydroxyethyl)-4-methoxycyclohexyl]nicotinamide] |
|  | 11 nM | CN(C)C(=O)N[C@H]1CC[C@@H](NC(=O)c2ccc(-c3cccc(F)c3)nc2)CC1 [Example 234, N-{cis-4-[(Dimethylcarbamoyl)amino]cyclohexyl}-6-(3-fluorophenyl)nicotinamide] |
|  | 11.8 nM | COCC1(O)CCC(NC(=O)c2ccc(-c3cccc(F)c3)nc2)CC1 (centres unmarked) [Example 235, 6-(3-Fluorophenyl)-N-[4-hydroxy-4-(methoxymethyl)cyclohexyl]nicotinamide] |
|  | 5.7 nM | CNC(=O)N[C@H]1CC[C@@H](NC(=O)c2ccc(-c3cccc(F)c3)nc2)CC1 [Example 236, 6-(3-Fluorophenyl)-N-{cis-4-[(methylcarbamoyl)amino]cyclohexyl}nicotinamide] |
|  | 16.2 nM | C[C@H](O)C(=O)N[C@H]1CCC[C@H](NC(=O)c2ccc(-c3cccc(F)c3)nc2)C1 [Example 246, 6-(3-Fluorophenyl)-N-{trans-3-{[(2S)-2-hydroxypropanoyl]amino}cyclohexyl]nicotinamide] |
|  | 44.1 nM | O=C(N[C@@H]1CCC[C@H](CNC(=O)[C@@H]2CCCN2)C1)c1ccc(-c2cccc(F)c2)nc1 [Example 259] |
|  | 59.9 nM | O=C(N[C@H]1CCC[C@@H](C(=O)N2CCC(O)CC2)C1)c1ccc(-c2cccc(F)c2)nc1 [Example 260, 6-(3-Fluorophenyl)-N-{(1S,3R)-3-[(4-hydroxypiperidin-1-yl)carbonyl]cyclohexyl}nicotinamide] |
|  | 4 nM | Cc1noc(C[C@H]2CC[C@H](NC(=O)c3ccc(-c4cccc(F)c4)nc3)CC2)n1 [Example 261, 6-(3-Fluorophenyl)-N-[trans 4-(3-methyl-[1,2,4]oxadiazol-5-ylmethyl)cyclohexyl]nicotinamide] |
|  | 5 nM | CN1CCN(C(=O)C2(C#N)CCCC(NC(=O)c3ccc(-c4cccc(F)c4)nc3)C2)CC1 (centres unmarked) [Example 263, N-{3-Cyano-3-[(4-methylpiperazin-1-yl)carbonyl]cyclohexyl}-6-(3-fluorophenyl)nicotinamide] |
|  | 9.2 nM | CCN1CCN(C(=O)C2(C#N)CCCC(NC(=O)c3ccc(-c4cccc(F)c4)nc3)C2)CC1 (centres unmarked) [Example 264, N-{3-Cyano-3-[(4-ethylpiperazin-1-yl)carbonyl]cyclohexyl}-6-(3-fluorophenyl)nicotinamide] |
|  | 2.8 nM | N#CC1(C(=O)N2CCOCC2)CCCC(NC(=O)c2ccc(-c3cccc(F)c3)nc2)C1 (centres unmarked) [Example 265, N-[3-Cyano-3-(morpholin-4-ylcarbonyl)cyclohexyl]-6-(3-fluorophenyl)nicotinamide] |
|  | 10.6 nM | CN(C)C(=O)C1(C#N)CCCC(NC(=O)c2ccc(-c3cccc(F)c3)nc2)C1 (centres unmarked) [Example 266, N-[3-Cyano-3-(dimethylcarbamoyl)cyclohexyl]-6-(3-fluorophenyl)nicotinamide] |
|  | 9.1 nM | CNC(=O)N[C@H]1CC[C@H](NC(=O)c2ccc(-c3cccc(F)c3)nc2)CC1 [Example 270] |
|  | 18 nM | CN(C)C(=O)N[C@H]1CC[C@H](NC(=O)c2ccc(-c3cccc(F)c3)nc2)CC1 [Example 271] |
|  | 11 nM | CNC(=O)N(C)[C@H]1CC[C@H](NC(=O)c2ccc(-c3cccc(F)c3)nc2)CC1 [Example 272, 6-(3-Fluorophenyl)-N-{trans-4-[methyl(methylcarbamoyl)amino]cyclohexyl}nicotinamide] |
|  | 5.4 nM | Cc1nnc(C[C@H]2CC[C@@H](NC(=O)c3ccc(-c4cccc(F)c4)nc3)CC2)o1 [Example 273, 6-(3-Fluorophenyl)-N-{cis-4-[(5-methyl-1,3,4-oxadiazolyl-2-yl)methyl]cyclohexyl}nicotinamide] |
|  | 13.7 nM | CN1CCN(C(=O)C[C@H]2CC[C@@H](NC(=O)c3ccc(-c4cccc(F)c4)nc3)CC2)CC1 [Example 274, 6-(3-Fluorophenyl)-N-{cis-4-[2-(-methylpiperazin-1-yl)-2-oxoethyl]cyclohexyl}nicotinamide] |
|  | 81.8 nM | CC(C)(O)[C@H]1CC[C@@H](NC(=O)c2ccc(-c3cccc(F)c3)nc2)CC1 [Example 275, 6-(3-Fluorophenyl)-N-[cis-4-(1-hydroxy-1-methylethyl)cyclohexyl]nicotinamide] |

Reference: patent US20100173888A1 (Pfizer Inc, priority 2008, published 2010)
